Assay results published in patent US20250152660A1, “SCO-spondin-derived polypeptides for treating biological barriers dysfunction” (AXOLTIS PHARMA, priority 2021, published 2025).
“And” between values parts separate entries of the source, which are not always exact repeats. Equal entries are not always repeated. Bridges are numbered along the chain shown (N, C = ends). Where no end group is shown, it is not given here.

Legend:
Type in all cases: cell-based
[1] = tested on: mouse brain endothelial bEnd.3 cells; experiment: Transendothelial electrical resistance (TEER) of mouse brain endothelial cell monolayer on Transwell inserts; conditions: for TEER change relative to control, Average / TEER change relative to control: bEnd.3
Description: (§1) To determine the effect of NX218 on transendothelial electrical resistance (TEER) of mouse brain endothelial cells, cells were grown on a semi-permeable membrane inserted in culture wells in presence or absence of NX218 and the TEER was recorded using electrodes placed on each side of the membrane and a resistance meter.
Mouse brain endothelial cells (bEnd.3, American Type Culture Collection) were cultured in Dulbecco's modified Eagle's Medium (DMEM) supplemented with 10% fetal bovine serum (FBS) and 2 mM sodium pyruvate in a 5% CO2 incubator at 37° C.
bEnd.3 cells were grown on 6.5-mm-diameter, 0.4-μm-pore, polyester membrane HTS Transwell inserts (5×10^4 cells per well containing 200 μL and 800 μL of culture medium in the apical and basolateral compartments respectively). Three days after seeding, cells were treated with vehicle or NX218 (1, 10 and 100 μM) for 1, 2 or 3 days. TEER values were measured using an EVOM resistance meter fitted with “chopstick” electrodes. One electrode was placed in the apical chamber and another one in the basolateral chamber. Before measurements, chambers were replaced with fresh medium.

[2] = tested on: Occludin in mouse brain endothelial bEnd.3 cells; experiment: Occludin western blot in mouse brain endothelial cell cultures; conditions: for Expression of Occludin, Average: average of N1-N8
Description: To understand the effect of NX218 on the TEER and permeability of mouse brain endothelial cells, the levels of the tight junction protein Occludin were assessed using Western Blot.
Mouse brain endothelial cells (bEnd.3, American Type Culture Collection) were cultured in DMEM supplemented with 10% fetal FBS and 2 mM sodium pyruvate in a 5% CO2 incubator at 37° C.
bEnd.3 cells were seeded on 12-well plates (2.5×10^5 cells per well in 1,000 μL) for western-blot analyses. Two days after seeding, cells were treated with vehicle or NX218 (1, 10 and 100 μM) for 24 hours. Proteins were isolated from the cell layers with lysis buffer (62.5 mM Tris, 2% SDS, 10 mM dithiothreitol, 10 μL protease inhibitor cocktail/100 mL (Sigma-Aldrich)), centrifugated at 12,000 r.p.m for 20 min at 4° C., and supernatants were used for analysis of tight junction proteins. Protein concentrations were determined with the Pierce BCA protein assay (Thermo Scientific). Ten (10) μL of samples and standards (working range=125-2000 μg/mL) were loaded in duplicate into a 96-well plate and 200 μL of working reagent (50 parts BCA reagent A with 1 part BCA reagent B) were added to each well, mixed on a shaker and incubated at 37° C. for 30 min. The plate was cooled to RT and the absorbance read at 562 nm. Protein concentrations were calculated from a standard curve. Ten (10) μg total protein were loaded per well for separation by SDS-polyacrylamide gel electrophoresis (12% acrylamide). Gels were transferred onto methanol-activated polyvinylidene difluoride membranes (Merck Millipore) via semi-dry transfer. Transferred membranes were reactivated with methanol and blocked under slight agitation in tris-buffered saline (TBS)-Tween-20 containing 3% weight/volume Marvel non-fat dry milk for 1 h at RT. Blocked membranes were washed three times with TBS-Tween-20 and treated with primary rabbit polyclonal antibodies against Occludin (Novus Biotech, ref. NBP1-87402, 65 kDa, 1/1000 dilution) overnight at 4° C. Membranes were washed three times for 5 min in TBS-Tween-20 and incubated with horseradish peroxidase-conjugated goat anti-rabbit secondary antibody (A6154, Sigma-Aldrich) diluted 1/2,000 in TBS-Tween-20 for 2 h at RT. Secondary antibody was removed and membranes washed four times for 5 min in TBS-Tween-20. Blots were developed by enhanced chemiluminescence (ECL). A 1:1 mix of WesternBright ECL Luminol/enhancer solution and Peroxide Chemiluminescent solution (Advansta) was incubated at RT for 2 min before being directly added onto washed blots. The LiCor C-Digit Blot Scanner was used to detect chemiluminescence over a 12-minute exposure time.

[3] = tested on: primary human umbilical vein endothelial cells (HUVEC); experiment: Transendothelial electrical resistance (TEER) of primary human umbilical vein endothelial cell monolayer; conditions: for TEER change relative to control, Average: average of N1-N9, control = 100; for TEER change relative to control: control average = 100, individual replicates N1-N9
Description: as §1, with “primary human umbilical vein” for “mouse brain”, “cells (HUVEC),” for “cells,”
HUVEC (PromoCell, C-12208) were cultured in EBM-2 basal media supplemented with bullet kit reagents (both from Lonza) in a 5% CO2 incubator at 37° C.
HUVEC were grown on 6.5-mm-diameter, 0.4-μm-pore, polyester membrane HTS Transwell inserts (5×10^4 cells per well containing 200 μL and 800 μL of culture medium in the apical and basolateral compartments respectively). Two days after seeding, cells were treated with vehicle or NX218 (1, 10 and 100 μM) for 1 or 3 days. TEER values were measured using an EVOM resistance meter fitted with “chopstick” electrodes. One electrode was placed in the apical chamber and another one in the basolateral chamber. Before measurements, chambers were replaced with fresh medium.

W-S-G-W-S-S-C-S-R-S-C-G (WSGWSSCSRSCG; disulfide 7-11 (inferred)) [NX218]
Resistance (TEER), result in words ([1]; 10 and 100 μM for 1, 2 or 3 days, compared with vehicle-treated monolayer): significantly increased in a dose dependent manner | TEER ([1]; FIG. 1, 1, 10, 100 μM for 24 h, 48 h or 72 h): increases the transendothelial electrical resistance of mouse brain endothelial cell monolayer in a dose-dependent manner | TEER change relative to control, Average ([1]; NX218 1 μM, 24 hours, average of N1-N6, control = 1): 1.095 | TEER change relative to control ([1]; NX218 1 μM, 24 hours, individual replicates N1-N6): 1.096 and 1.109 and 0.9761 and 1.051 and 1.197 and 1.139 | TEER change relative to control, Average ([1]; NX218 1 μM, 48 hours, average of N1-N9, control = 1): 1.089 | TEER change relative to control ([1]; NX218 1 μM, 48 hours, individual replicates N1-N9): 1.149 and 1.219 and 1.194 and 0.9888 and 1.006 and 1.056 and 0.9841 and 1.196 and 1.011 | TEER change relative to control, Average ([1]; NX218 1 μM, 72 hours, average of N1-N9, control = 1): 0.9718 | TEER change relative to control ([1]; NX218 1 μM, 72 hours, individual replicates N1-N9): 0.9966 and 1.022 and 1.007 and 1.003 and 0.9525 and 0.9474 and 0.9315 and 0.9406 and 0.9452 | TEER change relative to control, Average ([1]; NX218 10 μM, 24 hours, average of N1-N6, control = 1): 1.128 | TEER change relative to control ([1]; NX218 10 μM, 24 hours, individual replicates N1-N6): 1.027 and 1.068 and 1.072 and 1.178 and 1.212 (2×) | TEER change relative to control, Average ([1]; NX218 10 μM, 48 hours, average of N1-N9, control = 1): 1.203 | TEER change relative to control ([1]; NX218 10 μM, 48 hours, individual replicates N1-N9): 1.219 (2×) and 1.334 and 1.016 (2×) and 1.053 and 1.28 and 1.381 and 1.312 | TEER change relative to control, Average ([1]; NX218 10 μM, 72 hours, average of N1-N9, control = 1): 1.196 | TEER change relative to control ([1]; NX218 10 μM, 72 hours, individual replicates N1-N9): 1.27 and 1.255 and 1.239 and 1.187 (3×) and 1.151 and 1.146 (2×) | TEER change relative to control, Average ([1]; NX218 100 μM, 24 hours, average of N1-N6, control = 1): 1.307 | TEER change relative to control ([1]; NX218 100 μM, 24 hours, individual replicates N1-N6): 1.218 and 1.283 and 1.142 and 1.454 and 1.373 and 1.37 | TEER change relative to control, Average ([1]; NX218 100 μM, 48 hours, average of N1-N9, control = 1): 1.461 | TEER change relative to control ([1]; NX218 100 μM, 48 hours, individual replicates N1-N9): 1.547 and 1.404 and 1.498 and 1.223 and 1.284 and 1.173 and 1.725 and 1.72 and 1.571 | TEER change relative to control, Average ([1]; NX218 100 μM, 72 hours, average of N1-N9, control = 1): 1.446 | TEER change relative to control ([1]; NX218 100 μM, 72 hours, individual replicates N1-N9): 1.467 and 1.553 and 1.624 and 1.436 and 1.457 and 1.584 and 1.237 and 1.306 and 1.347 | Increase of occludin protein levels vs control ([2]; 1 μM, 24 h, bEnd.3, p=0.0309): +26.3% | Increase of occludin protein levels vs control ([2]; 10 μM, 24 h, bEnd.3, p=0.0053): +41.1% | Increase of occludin protein levels vs control ([2]; 100 μM, 24 h, bEnd.3, p=0.0112): +36.8% | Occludin protein levels, result in words ([2]; 1, 10 and 100 μM, 24 h, compared with control): significant increase of occludin protein levels | Expression of Occludin ([2]; FIG. 6, 24-hour treatment): increases the expression of Occludin | Expression of Occludin, Average ([2]; NX218 1 μM, 24 hours, bEnd.3, western blot): 126.30 % of Control | Expression of Occludin ([2]; NX218 1 μM, 24 hours, bEnd.3, western blot, individual replicates N1-N8): 124.20 % of Control and 120.60 % of Control and 92.30 % of Control and 152.80 % of Control and 146.80 % of Control and 135.50 % of Control and 125.00 % of Control and 113.00 % of Control | Expression of Occludin, Average ([2]; NX218 10 μM, 24 hours, bEnd.3, western blot): 141.10 % of Control | Expression of Occludin ([2]; NX218 10 μM, 24 hours, bEnd.3, western blot, individual replicates N1-N8): 124.20 % of Control and 123.30 % of Control and 114.20 % of Control and 93.50 % of Control and 187.30 % of Control and 166.20 % of Control and 176.60 % of Control and 143.50 % of Control | Expression of Occludin, Average ([2]; NX218 100 μM, 24 hours, bEnd.3, western blot): 136.80 % of Control | Expression of Occludin ([2]; NX218 100 μM, 24 hours, bEnd.3, western blot, individual replicates N1-N8): 112.10 % of Control and 103.80 % of Control and 111.20 % of Control and 188.40 % of Control and 123.40 % of Control and 158.40 % of Control and 122.20 % of Control and 174.50 % of Control | TEER change relative to control, Average ([3]; NX218 1 μM, 24 hours): 104 | TEER change relative to control ([3]; NX218 1 μM, 24 hours): 101.3 (3×) and 95.36 (2×) and 89.4 and 119.2 (2×) and 113.2 | TEER change relative to control, Average ([3]; NX218 1 μM, 72 hours): 101.1 | TEER change relative to control ([3]; NX218 1 μM, 72 hours): 113.1 (2×) and 97.71 and 87.43 and 82.29 and 92.57 and 123.4 and 128.6 and 72 | TEER change relative to control, Average ([3]; NX218 10 μM, 24 hours): 119.2 | TEER change relative to control ([3]; NX218 10 μM, 24 hours): 101.3 (2×) and 119.2 and 149 (2×) and 143 and 89.4 and 113.2 and 107.3 | TEER change relative to control, Average ([3]; NX218 10 μM, 72 hours): 109.7 | TEER change relative to control ([3]; NX218 10 μM, 72 hours): 97.71 and 118.3 and 123.4 and 87.43 and 102.9 and 108 (2×) and 128.6 and 113.1 | TEER change relative to control, Average ([3]; NX218 100 μM, 24 hours): 158.9 | TEER change relative to control ([3]; NX218 100 μM, 24 hours): 137.1 and 149 and 143 (2×) and 172.8 and 184.8 (2×) and 155 and 160.9 | TEER change relative to control, Average ([3]; NX218 100 μM, 72 hours): 131.4 | TEER change relative to control ([3]; NX218 100 μM, 72 hours): 144 (2×) and 138.9 and 108 (2×) and 123.4 and 133.7 and 154.3 and 128.6 | Resistance (TEER), result in words ([3]; NX218 at 100 μM for 1 or 3 days, compared with vehicle): significantly increased in a dose dependent manner
